These results are taken from PMC9144936, “New Cu^+2 Complexes with N-Sulfonamide Ligands: Potential Antitumor, Antibacterial, and Antioxidant Agents” (Molecules, 2022).

The data set has as its system Swiss mice. The following applies: mouse, in vivo, ip, 150 mg/kg/day. As for the experimental part: This study was carried out for a period of 2 weeks on 10 adult Swiss mice, with 5 males and 5 females.
A subacute toxicity study was carried out for a period of 2 weeks for the C2 complex. In total, 10 adult Swiss mice, 32.26 ± 1.3 g body weight, with 5 males and 5 females, were used. The mice were caged in standard polypropylene cages, in standard laboratory conditions (12 h light/dark cycle, temperature 25 ± 1 °C, and relative humidity 55 ± 5%). Standard lab chow, provided by the “Cantacuzino” National Insitute for Research and Development Bucharest, and water were freely available. All procedures performed on mice complied with the European Directive 2010/63/EU and the national low 43/2014 for Protection of Animals Used for Scientific Purposes. This study was approved by the Bioethical Board of the Faculty of Veterinary Medicine Cluj-Napoca (accord no.290/22.11.2021) and the Veterinary Sanitary Direction and Food Safety (accord no.284/21.12.2021). All mice received i.p. 150 mg complex C2/kg b.w./day, for 2 weeks. […]
The general clinical status and the body weight were recorded daily. […]
The liver and kidneys were also removed. […] To determine the hematological toxicity, erythrogram, leukogram, and thrombogram were assessed using a Diatron Abascus Junior Vet 3.

As for “[Cu(N-(5-Ethyl--[1,3,4]-Thiadiazole-2-yl) Naphtalenesulfonamidate)2(py)2(H2O)] [C2]”, the clinical changes entry is reported as “did not undergo clinical changes”; the “histological analyses of kidney and liver” value is on record as “normal structure”.
